Data reported in publication PMC9921301, “Design, Synthesis, and Antiproliferative Activity of New 5-Chloro-indole-2-carboxylate and Pyrrolo[3,4-b]indol-3-one Derivatives as Potent Inhibitors of EGFR^T790M/BRAF^V600E Pathways” (Molecules, 2023).
Read-outs that look alike come from different tables or passages of the source.

How the values were obtained:
[1] = tested on: MCF-7 (breast cancer cell line); assay: Antiproliferative assay, MCF-7; assay type: cell-based; details: Homo sapiens, MCF7; read-out: Antiproliferative Activity IC50 ± SEM MCF-7
Description: (§1) For ease of manipulation, the average (GI50) versus the four cancer cell lines was used.
(§2) To investigate the antiproliferative potential of 3a–e, 4a–c, and 5a–c, the MTT assay was carried out using various cell lines in accordance with previously reported procedures. See Appendix SA (Supplementary Materials). […]
(§3) ethylenediamine tetra acetic acid (EDTA) was used to passage the cells after every 2-3 days. 96-well flat-bottomed cell culture plates were used to seed the cells at a density of 10^4 cells mL-1. The medium was aspirated from all the wells of culture plates after 24 h followed by the addition of synthesized compounds (in 200 μL medium to yield a final concentration of 0.1% (v/v) dimethylsulfoxide) into individual wells of the plates.
(§4) Four wells were designated to a single compound. The plates were allowed to incubate at 37°C for 96 h. Afterwards, the medium was aspirated and 3-[4,5-dimethylthiazol-2-yl]-2,5-diphenyltetrazolium bromide (MTT) (0.4 mg/mL) in medium was added to each well and subsequently incubated for 3 h. The medium was aspirated and 150 μL dimethyl sulfoxide (DMSO) was added to each well. The plates were vortexed followed by the measurement of absorbance at 540 nm on a microplate reader. The results were presented as inhibition (%) of proliferation in contrast to controls comprising 0.1% 4.2.1.2. Assay for antiproliferative effect
(§5) To explore the antiproliferative potential of compounds propidium iodide fluorescence assay was performed using different cell lines such as Panc-1 (pancreas cancer cell […]
(§6) (epithelial cancer cell line), respectively. To calculate the total nuclear DNA, a fluorescent dye (propidium iodide, PI) is used which can attach to the DNA, thus offering a quick and precise technique. PI cannot pass through the cell membrane and its signal intensity can be considered as directly proportional to quantity of cellular
(§7) DNA. Cells whose cell membranes are damaged or have changed permeability are counted as dead ones. The assay was performed by seeding the cells of different cell lines at a density of 3000-7500 cells/well (in200μl medium) in culture plates followed […]
(§8) The medium was removed; the compounds were added to the plates at 10 μM concentrations (in 0.1% DMSO) in triplicates, followed by incubation for 48h. DMSO (0.1%) was used as control. After incubation, medium was removed followed by the addition of PI (25 μl, 50μg/mL in water/medium) to each well of the plates. At -80 °C, the plates were allowed to freeze for 24 h, followed by thawing at 25 °C. A fluorometer (Polar-Star BMG Tech) was used to record the readings at excitation and emission wavelengths of 530 and 620 nm for each well. The percentage cytotoxicity of compounds was calculated using the following formula:
(§9) Where ATC= Absorbance of treated cells and AC= Absorbance of control. […]
(§10) was used as positive control in the assay. […]

[2] = tested on: Panc-1 (pancreatic cancer cell line); assay: Antiproliferative assay, Panc-1; assay type: cell-based; details: Homo sapiens, read-out: Antiproliferative Activity IC50 ± SEM Panc-1
Description: as §1, §2, §3, §4, §5, §6, §7, §8, §9, §10

[3] = target: T1, EGFR (Homo sapiens, UniProt P00533); assay: EGFR-TK inhibitory assay
[4] = tested on: A-549 (epithelial cancer cell line); assay: Antiproliferative assay, A-549; assay type: cell-based; details: Homo sapiens, A549; read-out: Antiproliferative Activity IC50 ± SEM A-549
Description: as §1, §2, §3, §4, §5, §6, §7, §8, §9, §10

[5] = tested on: four human cancer cell lines (Panc-1, MCF-7, HT-29, A-549); assay: Antiproliferative assay, average (GI50) versus the four cancer cell lines; assay type: cell-based; details: for GI50: Homo sapiens, average versus the four cancer cell lines; for fold less potent than 3e (GI50): relative to 3e GI50 29 nM
Description: as §1, §2, §3, §4, §5, §6, §7, §8, §9, §10

[6] = target: T2, BRAF^V600E (Mus musculus, UniProt P28028, V585E); assay: V600E mutant BRAF kinase assay; assay type: biochemical; details: for IC50: read-out: BRAF^V600E Inhibition IC50 ± SEM
T2 construct: Mouse full-length GST-tagged; GST; purchased Invitrogen PV3849
Description: V600E mutant BRAF kinase assay was performed to investigate the activity of […]
Mouse full-length GST-tagged
BRAFV600E (7.5 ng, Invitrogen, PV3849) was pre -incubated with drug (1 µL) and assay dilution buffer (4 µL) for 6 0 min at 25 °C. In assay dilution buffer, a solution (5 µL) containing MgCl2 (30 mM), ATP (200 µM), recombinant human full length (200 ng) […] N-terminal His-tagged MEK1 (Invitrogen) was added to start the assay, after incubation for 25 min at 25 °C. The assay was stopped using 5X protein denaturing buffer (LDS) solution (5 µL). To further denature the protein, heat (70° C) was applied […]
electrophoresis (at 200 V). 10 µL of each reaction was loaded into the precast plates and electrophoresis was allowed to proceed. After completion of electrophoresis, the front part of the precast gel plate (holding hot ATP) was cut and afterwards cast -off.
The dried gel was developed using a phosphor screen. […]
Computerized Prism 5 program was used to statistically analyzed data using one-way ANOVA test followed by Tukey’s as post ANOVA for multiple comparison at P ≤.05.
Data were presented as mean ± SEM.

[7] = Cell viability assay (MTT) on normal mammary epithelial cells; assay type: cell-based; details: human, MCF-10A normal mammary gland epithelial cells, four days of incubation
Description: The viability test was performed on a normal human mammary gland epithelial cell line (MCF-10A). The MTT test was used to assess the viability of compounds 3a–e, 4a–c, and 5a–c.
The MTT assay was used to determine how the synthesized compounds affected the viability of mammary epithelial cells (MCF-10A). See Appendix SA (Supplementary Materials). […]
4.2. Biological evaluation
4.2.1. Cytotoxic activity using MTT Assay and evaluation of IC50
MTT assay was performed to investigate the effect of the synthesized compounds on mammary epithelial cells (MCF-10A). The cells were propagated in medium consisting of Ham's F-12 medium/ Dulbecco's modified Eagle's medium (DMEM) (1:1) supplemented with 10% foetal calf serum, 2 mM glutamine, insulin (10 μg/mL), hydrocortisone (500 ng/mL) and epidermal growth factor (20 ng/mL). Trypsin ethylenediamine tetra acetic acid (EDTA) was used to passage the cells after every 2-3 days. 96-well flat-bottomed cell culture plates were used to seed the cells at a density of 10^4 cells mL-1. The medium was aspirated from all the wells of culture plates after 24 h followed by the addition of synthesized compounds (in 200 μL medium to yield a final concentration of 0.1% (v/v) dimethylsulfoxide) into individual wells of the plates.
as §4, with “The results were presented as inhibition (%) of proliferation in contrast to controls comprising 0.1% 4.2.1.2. Assay for antiproliferative effect” left out

[8] = tested on: HT-29 (colon cancer cell line); assay: Antiproliferative assay, HT-29; assay type: cell-based; details: Homo sapiens, read-out: Antiproliferative Activity IC50 ± SEM HT-29
Description: as §1, §2, §3, §4, §5, §6, §7, §8, §9, §10

[9] = target: T1, EGFR; design: CD, amino acids 645–1186); His6 (N); made in house; host or cells: Sf-9 insect cells (baculovirus; pBlueBacHis2B / pFASTBacHTc; details: cited from earlier work
[10] = tested on: BRAF^V600E; details: cited from earlier work

T1 sequence (P00533 669-1210): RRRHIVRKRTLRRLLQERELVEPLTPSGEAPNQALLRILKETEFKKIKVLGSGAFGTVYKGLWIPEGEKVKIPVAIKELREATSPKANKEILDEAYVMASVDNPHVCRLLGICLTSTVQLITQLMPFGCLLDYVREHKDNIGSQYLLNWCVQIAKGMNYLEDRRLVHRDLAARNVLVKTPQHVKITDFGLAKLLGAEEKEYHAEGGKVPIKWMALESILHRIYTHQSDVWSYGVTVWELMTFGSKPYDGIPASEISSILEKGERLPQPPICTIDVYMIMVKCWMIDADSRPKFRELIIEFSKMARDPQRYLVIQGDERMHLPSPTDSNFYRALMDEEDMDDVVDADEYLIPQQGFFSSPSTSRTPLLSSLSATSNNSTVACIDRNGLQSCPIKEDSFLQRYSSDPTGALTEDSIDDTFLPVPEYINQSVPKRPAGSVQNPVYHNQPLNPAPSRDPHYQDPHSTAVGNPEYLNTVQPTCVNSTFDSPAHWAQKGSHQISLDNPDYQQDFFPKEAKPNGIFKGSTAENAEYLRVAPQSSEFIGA
T2 sequence (P28028 whole entry V585E): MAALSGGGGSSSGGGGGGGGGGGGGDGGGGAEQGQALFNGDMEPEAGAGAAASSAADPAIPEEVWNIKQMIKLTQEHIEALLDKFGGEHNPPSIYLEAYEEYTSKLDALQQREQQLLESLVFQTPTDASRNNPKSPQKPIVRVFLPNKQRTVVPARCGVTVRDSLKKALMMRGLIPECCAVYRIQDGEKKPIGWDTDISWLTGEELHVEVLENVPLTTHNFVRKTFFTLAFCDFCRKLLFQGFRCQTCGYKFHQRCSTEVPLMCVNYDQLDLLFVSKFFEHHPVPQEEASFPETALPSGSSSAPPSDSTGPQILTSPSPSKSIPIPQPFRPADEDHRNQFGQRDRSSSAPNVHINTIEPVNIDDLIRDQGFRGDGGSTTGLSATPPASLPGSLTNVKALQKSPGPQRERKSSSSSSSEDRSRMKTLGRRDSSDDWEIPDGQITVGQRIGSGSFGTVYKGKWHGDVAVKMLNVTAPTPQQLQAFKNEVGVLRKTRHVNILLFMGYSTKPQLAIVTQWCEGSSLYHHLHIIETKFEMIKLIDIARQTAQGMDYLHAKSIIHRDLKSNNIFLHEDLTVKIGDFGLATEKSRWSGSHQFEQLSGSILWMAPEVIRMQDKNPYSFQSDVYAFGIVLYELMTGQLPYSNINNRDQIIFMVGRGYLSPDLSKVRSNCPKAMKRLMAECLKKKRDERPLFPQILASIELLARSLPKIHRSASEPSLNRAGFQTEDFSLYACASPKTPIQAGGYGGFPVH

SMILES | IC50 [1] [nM] | IC50 [2] [nM] | IC50 [3] [nM] | IC50 [4] [nM] | GI50 [5] [nM] | IC50 [6] [nM] | fold less potent than vemurafenib (BRAF^V600E IC50) ([6]; relative to vemurafenib IC50 = 30 nM) [fold] | viability at 96 h, 50 µM [7] [%] | IC50 [8] [nM] | fold less potent than 3e (GI50) [5] [fold] | IC50 [9] [nM] | IC50 [10] [nM]
CCOC(=O)c1[nH]c2ccc(Cl)cc2c1CNCCc1ccccc1 [Compound 3a, Ethyl 5-chloro-3-((phenethylamino)methyl)-1H-indole-2-carboxylate] | 35 ± 3 | 36 ± 3 | 85 ± 6 | 33 ± 3 | 35 | 43 ± 4 | 1.4 | 87 | 36 ± 3 | – | – | –
CCOC(=O)c1[nH]c2ccc(Cl)cc2c1CNCCc1ccc(N2CCCCC2)cc1 [Compound 3c, Ethyl 5-chloro-3-((4-(piperidin-1-yl)phenethylamino)methyl)-1H-indole-2-carboxylate] | 45 ± 4 | 42 ± 4 | 89 ± 6 | 41 ± 4 | 42 | 67 ± 6 | – | 89 | 44 ± 4 | 1.5 | – | –
CCOC(=O)c1[nH]c2ccc(Cl)cc2c1CNCCc1ccc(N2CCCC2C)cc1 (stereo not shown) [Compound 3d, Ethyl 5-chloro-3-((4-(2-methylpyrrolidin-1-yl)phenethylamino)methyl)-1H-indole-2-carboxylate] | 40 ± 4 | 38 ± 3 | 82 ± 7 | 37 ± 3 | 38 | 54 ± 5 | – | 90 | 38 ± 3 | 1.3 | – | –
O=C(O)c1[nH]c2ccc(Cl)cc2c1CNCCc1ccccc1 [Compound 4a, 5-Chloro-3-((phenethylamino)methyl)-1H-indole-2-carboxylic acid] | 79 ± 7 | 78 ± 7 | – | 75 ± 7 | 78 | – | – | 91 | 78 ± 7 | – | – | –
O=C(O)c1[nH]c2ccc(Cl)cc2c1CNCCc1ccc(N2CCCC2)cc1 [Compound 4b, 5-Chloro-3-((4-(pyrrolidin-1-yl)phenethylamino)methyl)-1H-indole-2-carboxylic acid] | 69 ± 6 | 68 ± 6 | – | 65 ± 6 | 68 | – | – | 89 | 68 ± 6 | – | – | –
O=C(O)c1[nH]c2ccc(Cl)cc2c1CNCCc1ccc(N2CCCCC2)cc1 [Compound 4c, 5-Chloro-3-((4-(piperidin-1-yl)phenethylamino)methyl)-1H-indole-2-carboxylic acid] | 73 ± 7 | 72 ± 7 | – | 69 ± 7 | 72 | – | – | 87 | 75 ± 7 | – | – | –
O=C1c2[nH]c3ccc(Cl)cc3c2CN1CCc1ccccc1 [Compound 5a, 7-Chloro-2-phenethyl-1,2-dihydropyrrolo [3,4-b]indol-3(4H)-one] | 48 ± 5 | 50 ± 5 | – | 46 ± 4 | 48 | – | – | 89 | 49 ± 5 | – | – | –
O=C1c2[nH]c3ccc(Cl)cc3c2CN1CCc1ccc(N2CCCC2)cc1 [Compound 5b, 7-Chloro-2-(4-(pyrrolidin-1-yl)phenethyl)-1,2-dihydropyrrolo [3,4-b]indol-3(4H)-one] | 61 ± 6 | 64 ± 6 | – | 58 ± 5 | 62 | – | – | 89 | 66 ± 6 | – | – | –
O=C1c2[nH]c3ccc(Cl)cc3c2CN1CCc1ccc(N2CCCCC2)cc1 [Compound 5c, 7-Chloro-2-(4-(piperidin-1-yl)phenethyl)-1,2-dihydropyrrolo [3,4-b]indol-3(4H)-one] | 53 ± 5 | 55 ± 5 | – | 51 ± 5 | 54 | – | – | 91 | 57 ± 5 | – | – | –
O=C(NCCc1ccc(N2CCOCC2)cc1)c1[nH]c2ccc(Cl)cc2c1CO [Compound IVc] | – | – | – | – | – | – | – | – | – | – | 120 | –
Cc1c2cc(Cl)ccc2n2cc(Cc3ccccc3)[nH]c(=O)c12 [Compound V] | – | – | – | – | – | – | – | – | – | – | – | 100
CCOCc1c2n(c3ccc(Cl)cc13)C(=O)CN(CCc1ccc(N3CCOCC3)cc1)C2=O [VII] | – | – | – | – | – | – | – | – | – | – | 32 | 45
